Assay results taken from PMC4632503, “Targeting of Helicobacter pylori thymidylate synthase ThyX by non-mitotoxic hydroxy-naphthoquinones” (Open Biology, 2015).
pKi: −log10 of the molar value. Read-outs that look alike come from different tables or passages of the source.

Assays:
AGS cells [1] = test: cytotoxicity, LDH release; type: cell-based, human; settings: for cytotoxicity: 0.78 to 50 μg ml^−1, 24 h
Description: Cytotoxicity of the 2-OH-1,4-NQ derivatives was assessed by measuring lactate dehydrogenase (LDH) release following manufacturer's instructions (Cytotoxicity Detection Kit; Roche Applied Sciences). Briefly, AGS cells (human gastric adenocarcinoma cell line; ATCC Catalog no. CRL-1739TM) were cultured in Ham's F-12 K medium containing 1% of FBS. A total of 3 × 10^4 cells were added per well in a sterile 96-well tissue culture plate. Cells were then treated with different doses of 2-OH-1,4-NQ compounds ranging from 0.78 to 50 μg ml^−1. After a 24 h incubation at 37°C (5% CO2, 90% humidity), the microplates were centrifuged at 250g for 10 min, and the supernatants were carefully removed and transferred into optically clear 96-well microplates (Greiner Bio-One). The dye solution containing iodotetrazolium chloride and sodium lactate was then added to each well to quantify the amount of LDH released into the extracellular medium. LDH was quantified by measuring the A490 using a PowerWave Microplate Spectrophotometer (BioTek).

AGS cells [2] = test: mitotoxicity, resazurin reduction; type: cell-based, human; settings: for mitotoxicity: 0.78 to 50 μg ml^−1, 4 h treatment; for effect on mitochondrial metabolism: low concentrations, resazurin reduction
Description: Mitochondrial toxicity (mitotoxicity) was assessed by measuring resazurin (7-hydroxy-3H-phenoxazin-3-one 10-oxide) reduction by following absorption changes at 570 nm (Mitochondrial Viability Assay; Abcam). Resazurin is an indicator dye that reports on oxidation–reduction reactions taking place in the mitochondria of living cells. AGS cells (≅2.5 × 10^5cells well^−1) cultured in a DMEM galactose/glutamine-supplemented medium were seeded in sterile white-walled 96-well clear-bottom microplates and treated for 4 h with different doses of 2-OH-1,4-NQ compounds ranging from 0.78 to 50 μg ml^−1. Addition of the stain solution was followed by a further 4 h incubation at 37°C (5% CO2, 90% humidity) and A570 was measured. Rotenone, an inhibitor of the mitochondrial respiratory chain complex I, was used as a positive control.

HpThyX [3] = molecular target: T1, HpThyX (Helicobacter pylori, UniProt O26061); test: tritium release (deprotonation) assay of [5-3H]dUMP; type: biochemical; settings: for remaining activity at 100 µM: 20 min, read-out: inhibition against ThyX (% remaining activity relative to control); for dTMP-forming activity: quantitative tritium release assay, 100 μM compound, 10 μM ThyX enzyme
T1 construct: His6; made in house; host or cells: Escherichia coli BL21 (plasmid pGL2, pBAD promoter)
Description: (§1) HpThyX activity was assessed by measuring either deprotonation of [5-^3H]dUMP or NAPDH oxidation activities.
In the tritium release (deprotonation) assays, typical reactions contained 10 mM MgCl2, 10% (v/v) glycerol, 500 µM FAD, 2 mM NADPH, 1 mM CH2H4Folate and 10 mM β-mercaptoethanol in 50 mM HEPES (pH 8). Different concentrations of dUMP were also included in the reaction mixtures. The specific activity of tritiated [5-^3H]dUMP (diammonium salt) stock was 15–30 Ci mmol^−1 (Moravek Biochemicals, CA, USA). 2-OH-1,4-NQ derivatives were prepared at 100 µM in 1% DMSO. Reactions were initiated by adding the enzyme (10 µM) and were stopped after 20 min incubation at 37°C.

H. pylori strain 26695 = test: MIC, broth microdilution test, strain 26695; type: cell-based; settings: Helicobacter pylori, 26695, 24 h, read-out: minimal inhibitory concentration (MIC) strain 26695
Description: (§2) The in vitro anti-bacterial activity of 2-OH-1,4-NQ compounds was assessed against the 26695 and SS1 strains of H. pylori. DMSO was used as control in all experiments.
(§3) Disc diffusion tests were performed in triplicate, including a DMSO-only control on each plate, as specified in the electronic supplementary material. Minimal inhibitory concentrations (MICs) were determined using a broth microdilution test in 24-well microtitre plates. For test inocula, an overnight preculture of H. pylori strains 26695 and SS1 was diluted to an OD600 of approximately 0.1 and 0.5 ml of this suspension was transferred to each well. Ten microlitres of twofold serial dilutions of each compound in DMSO, ranging in concentration from 0.625 to 20 µg ml^−1, were added and the covered plates were incubated for 24 h at 37°C with orbital shaking at 140 r.p.m. under microaerophilic conditions. The MIC was determined as the lowest compound concentration resulting in full growth inhibition after 24 h of incubation. All the tests were done in triplicate, including cell-free and DMSO-only controls.

H. pylori strain SS1 = test: MIC, broth microdilution test, strain SS1; type: cell-based; settings: Helicobacter pylori, 24 h, read-out: minimal inhibitory concentration (MIC) strain SS1
Description: as §2, §3

[4] = tolerance of orogastric treatment in infected mice; type: in vivo, NMRI mice; settings: orogastric three times a day, 0.375 mg mouse day^−1, one week; for effect on body or stomach weight: data not shown
Description: NMRI-specific pathogen-free mice (Charles River Laboratories) were orogastrically inoculated with 10^8 CFU of the H. pylori mouse-adapted strain SS1, prepared in 100 μl of peptone broth. Four groups of six to eight mice were infected by H. pylori strain SS1. Earlier experiments have established that after one week, colonization of mice is fully established. A negative control group of five mice was inoculated with peptone broth alone and was not colonized by H. pylori. One week after infection, three groups of mice were treated orogastrically three times a day with 500 µl of either compound 010-C, 010-E or 010-I dissolved in 2% β-cyclodextrin at 0.25 mg ml^−1 (0.375 mg mouse d^−1) during one week. As a control, the fourth group of mice was treated orogastrically three times a day by the same amount of 2% β-cyclodextrin (17.6 mM), the vehicle of the compounds. […] This average size is in agreement with the average size of β-cyclodextrin particles that self-aggregate in water at a concentration of 12 mM [39]. After treatment, viable H. pylori cells, colonizing the mouse stomach, were enumerated by culture of serial dilutions of homogenized tissue on blood agar plates containing bacitracin (200 μg ml^−1) and nalidixic acid (10 μg ml^−1) as in [40].

HpThyX [5] = molecular target: T1, HpThyX; test: NADPH oxidation assay; type: biochemical; settings: estimated from slope of IC50 versus dUMP concentration
Description: as §1
NADPH oxidation assays were performed at 37°C in 96-well plates (Greiner Bio-One). One hundred microlitres of reaction mixture contained HEPES 50 mM (pH 8.6), NaCl 150 mM, FAD 50 µM, β-mercaptoethanol 1.43 mM, NADPH 500 µM and 10 µM of purified HpThyX. dUMP and 2-OH-1,4-NQ concentrations were varied across 12.5–200 µM and 0.3–100 µM, respectively. Microtitre plates were prepared and transferred to the microplate reader Chameleon II (Hidex). The reactions were started by automatically injecting NADPH into individual wells and ThyX activity was determined by following a decrease in absorbance at 340 nm. A molar extinction coefficient of 6220 M^−1 cm^−1 at 340 nm (ε340) was used to quantify NADPH oxidation. Samples with added DMSO and enzyme-free reactions were used as positive and negative controls, respectively.

H. pylori 26695 = test: bactericidal activity, viable counts (CFU) in liquid culture; type: cell-based, Helicobacter pylori; settings: exposure up to 24 h, replating on solid media
Description: To determine the bactericidal activity of C8-C1 against H. pylori, liquid BHI medium was inoculated with an overnight culture of H. pylori 26695 at an initial OD600 of 0.1. C8-C1 or chloramphenicol, used as bacteriostatic control, were added after 4 h of culture time at final concentrations of 5 and 30 µg ml^−1. To determine the viable counts of surviving bacteria (colony forming units, CFU), aliquots of culture were then plated in triplicate on blood agar plates after 3 and 24 h exposure.

[6] = semi-quantitative deprotonation assay, remaining activity, lower = stronger inhibition

T1 sequence (O26061 whole entry): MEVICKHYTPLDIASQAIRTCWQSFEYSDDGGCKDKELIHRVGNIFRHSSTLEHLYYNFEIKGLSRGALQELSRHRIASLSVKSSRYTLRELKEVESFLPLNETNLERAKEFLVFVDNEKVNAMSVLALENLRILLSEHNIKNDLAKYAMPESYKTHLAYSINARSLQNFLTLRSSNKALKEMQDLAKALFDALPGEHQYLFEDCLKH

| Structure (SMILES) | remaining activity at 100 µM (HpThyX [3]; [6]) [%] | MIC (H. pylori strain 26695; full growth inhibition) [µg/mL] | MIC (H. pylori strain 26695; value in brackets) [µM] | MIC (H. pylori strain SS1; full growth inhibition) [µg/mL] | MIC (H. pylori strain SS1; value in brackets) [µM] | further results |
| --- | --- | --- | --- | --- | --- | --- |
| O=C1C(O)=C([C@H]2CC[C@H](c3ccc(Cl)cc3)CC2)C(=O)c2ccccc21 [atovaquone, 2-(trans-4-(4-chlorophenyl)cyclohexyl)-3-hydroxy-1,4-naphthoquinone, reference compound] | – | – | – | – | – | cytotoxic effect (AGS cells [1]; 25 µg ml^−1, 24 h): 48 ± 5%; mitotoxicity (AGS cells [2]): targeted mitochondria |
| O=C1C(O)=C(Cc2ccc(Cl)cc2)C(=O)c2ccccc21 [010-A] | 49.5 | 10 | 33.5 | 5 | 16.7 | – |
| O=C1C(O)=C(Cc2ccc(F)cc2)C(=O)c2ccccc21 [007-E] | 66.3 | 10 | 35.4 | 10 | 35.4 | – |
| O=C1C(O)=C(Cc2ccc(F)c(Cl)c2)C(=O)c2ccccc21 [010-F] | 74.5 | 10 | 31.6 | 5 | 15.8 | – |
| O=C1C(O)=C(Cc2cccs2)C(=O)c2ccccc21 [010-D] | 36.4 | 10 | 37 | 10 | 37 | – |
| O=C1C(O)=C(Cc2cc(F)cc(F)c2)C(=O)c2ccccc21 [010-B] | 74.3 | 10 | 33.3 | 10 | 33.3 | – |
| O=C1C(O)=C(C=Cc2ccc(F)cc2)C(=O)c2ccccc21 [010-J] | 49.7 | 2.5 | 8.49 | 2.5 | 8.49 | – |
| O=C1C(O)=C(Cc2ccc(F)c(C(F)(F)F)c2)C(=O)c2ccccc21 [010-E] | 77.7 | 5 | 14.3 | 5 | 14.3 | dTMP-forming activity (HpThyX [3]): suppressed the dTMP-forming activity; cytotoxicity (AGS cells [1]): non-cytotoxic; mitotoxicity (AGS cells [2]): non-mitotoxic; effect on mitochondrial metabolism (AGS cells [2]): activated the mitochondrial metabolism; tolerance in mice [4]: tolerated in mice; effect on body or stomach weight [4]: None of the aforementioned treatments affected either the body or stomach weight |
| COc1cc(CC2=C(O)C(=O)c3ccccc3C2=O)ccc1O [010-H] | 57.8 | 20 | 64.5 | 10 | 32.2 | – |
| COc1ccc(CC2=C(O)C(=O)c3ccccc3C2=O)cc1OC [010-K] | 75.1 | 20 | 61.7 | 10 | 30.8 | – |
| CC(C)Oc1ccc(CC2=C(O)C(=O)c3ccccc3C2=O)cc1 [007-D] | 45.7 | ≥ 20 | ≥ 62 | 20 | 62 | – |
| O=C1C(O)=C(Cc2ccco2)C(=O)c2ccccc21 [010-C] | 76.4 | 10 | 39.3 | 10 | 39.3 | dTMP-forming activity (HpThyX [3]): suppressed the dTMP-forming activity; cytotoxicity (AGS cells [1]): non-cytotoxic; mitotoxicity (AGS cells [2]): non-mitotoxic; effect on mitochondrial metabolism (AGS cells [2]): activated the mitochondrial metabolism; pKi (HpThyX [5]): 7.55; tolerance in mice [4]: tolerated in mice; effect on body or stomach weight [4]: None of the aforementioned treatments affected either the body or stomach weight |
| O=C1C(O)=C(Cc2ccc(Oc3ccccc3)cc2)C(=O)c2ccccc21 [007-G] | 61.8 | 20 | 56.2 | 5 | 14 | – |
| O=C1C(O)=C(Cc2ccc(OC(F)(F)F)cc2)C(=O)c2ccccc21 [007-C] | – | 5 | – | 5 | – | remaining activity at 100 µM (HpThyX [3]): 62.5% |
| O=C(N[C@H](CO)[C@H](O)c1ccc([N+](=O)[O-])cc1)C(Cl)Cl [chloramphenicol, reference compound] | – | – | – | – | – | kind of anti-microbial activity / viable cells after exposure (H. pylori 26695): bacteriostatic |
| O=C1C(O)=C(Cc2ccc(-c3ccc(Cl)cc3)cc2)C(=O)c2ccccc21 [007-B] | 60.2 | 10 | 26.7 | 10 | 26.7 | – |
| O=C1C(O)=C(Cc2ccc(C(F)(F)F)cc2)C(=O)c2ccccc21 [007-F] | – | 5 | 15.1 | 10 | 15.1 | remaining activity at 100 µM (HpThyX [3]): 60.6% |
